Test results as given in patent publication US20070071833A1, “Fungicidal mixtures for controlling rice pathogens” (BASF Aktiengesellschaft, priority 2003, published 2007).

System: Cochliobolus miyabeanus
Experiment: activity against brown spot of rice caused by Cochliobolus miyabeanus, protective application (potted rice seedlings)
Type: in vivo
Settings: individual active compound, rice cultivar Tai-Nong 67, protective spray, evaluated after six days
Protocol: The active compounds, separately or jointly, were prepared as a stock solution with 0.25% by weight of active compound in acetone or DMSO. 1% by weight of the emulsifier Uniperol® EL (wetting agent having emulsifying and dispersing action based on ethoxylated alkylphenols) was added to this solution, and the solution was diluted with water to the desired concentration.
Use example—activity against brown spot of rice caused by Cochliobolus miyabeanus, protective application
Leaves of potted rice seedlings of the cultivar “Tai-Nong 67” were sprayed to runoff point with an aqueous suspension of the concentration of active compound stated below. The next day, the plants were inoculated with an aqueous spore suspension of Cochliobolus miyabeanus. The test plants were then placed in climatized chambers at 22-24° C. and 95-99% relative atmospheric humidity for six days. The extent of the development of the infection on the leaves was then determined visually.
Evaluation was carried out by determining the percentage of infected leaf area. These percentages were converted into efficacies.
The efficacy (E) is calculated as follows using Abbot's formula: E=(1−α/β)·100 • α corresponds to the fungicidal infection of the treated plants in % and • β corresponds to the fungicidal infection of the untreated (control) plants in %
An efficacy of 0 means that the infection level of the treated plants corresponds to that of the untreated control plants; an efficacy of 100 means that the treated plants were not infected.
The expected efficacies of mixtures of active compounds are determined using Colby's formula (R. S. Colby, Weeds, 15, 20-22, 1967) and compared with the observed efficacies.
Colby's formula: E=x+y−x·y/100 • E expected efficacy, expressed in % of the untreated control, when using the mixture of the active compounds A and B at the concentrations a and b • x efficacy, expressed in % of the untreated control, when using the active compound A at the concentration a • y efficacy, expressed in % of the untreated control, when using the active compound B at the concentration b

| SMILES | Efficacy in % of the untreated control (1 ppm in the spray liquor) [%] | Efficacy in % of the untreated control (4 ppm in the spray liquor) [%] |
| --- | --- | --- |
| CC1CCN(c2c(-c3c(F)cccc3F)c(Cl)nc3ncnn23)CC1 [comparative compound A] | 28 | 40 |
| CC1CCN(c2c(-c3c(F)cc(F)cc3F)c(Cl)nc3ncnn23)CC1 [I, 5-chloro-7-(4-methylpiperidin-1-yl)-6-(2,4,6-trifluorophenyl)-[1,2,4]tri-azolo[1,5-a]pyrimidine] | 4 | 28 |
| S1SSSSSSS1 [II (sulfur), sulfur] | 4 | 4 |
| C[C@H](Nc1c(-c2c(F)cc(F)cc2F)c(Cl)nc2ncnn12)C(F)(F)F [comparative compound B] | 0 | 16 |
